Ends that are not written are not given here.
Tests used:
[1] = administered subcutaneously; cited from earlier work
[2] = type 2 diabetic patients, cited from earlier work
[3] = target: T1, GLP-1 Receptor (Rattus norvegicus, UniProt P32301); assay: LANCE cAMP assay in INS-1E cells; format: cell-based; settings: FIG. 1
T1 construct: endogenous in cells; host or cells: INS-1E cells
T1 sequence (P32301 22-463): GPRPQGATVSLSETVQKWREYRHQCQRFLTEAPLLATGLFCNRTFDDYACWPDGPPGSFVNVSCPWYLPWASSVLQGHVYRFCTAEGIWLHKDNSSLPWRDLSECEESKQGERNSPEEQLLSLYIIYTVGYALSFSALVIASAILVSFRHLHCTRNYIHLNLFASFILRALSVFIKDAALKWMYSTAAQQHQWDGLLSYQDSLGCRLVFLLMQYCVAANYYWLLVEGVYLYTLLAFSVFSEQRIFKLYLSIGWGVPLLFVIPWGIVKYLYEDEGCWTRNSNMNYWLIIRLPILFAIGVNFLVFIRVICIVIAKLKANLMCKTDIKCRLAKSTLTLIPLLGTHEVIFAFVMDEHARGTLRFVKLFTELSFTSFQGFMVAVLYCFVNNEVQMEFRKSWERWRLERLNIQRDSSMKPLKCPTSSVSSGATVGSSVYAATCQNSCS
Description: The peptide-conjugates were tested for activity using the cAMP assay which measures cAMP produced upon modulation of adenylyl cyclase activity by GPCRs. • cAMP Assay The LANCE™ cAMP assay (Hemmila I. 1999. LANCE™: Homogeneous Assay Platform for HTS. J Biomol Screen. 4(6), 303-308) is a homogeneous time-resolved fluorescence resonance energy transfer (TR-FRET) immunoassay. The assay is based on the competition between a europium-labeled cAMP tracer and sample cAMP for binding sites on cAMP-specific antibodies labeled with the dye Alexa Fluor® 647. The europium-labeled tracer complex is formed by the tight interaction between Biotin-cAMP and streptavidin labeled with Europium-W8044 chelate. When antibodies are bound to the Eu-SA/b-cAMP tracer, light pulse 340 nm excites the Eu-chelate molecules of the tracer. […] The fluorescence intensity measure at 665 nm will decrease in the presence of cAMP from the test samples and resulting signals will be inversely proportional to the cAMP concentration of a sample (LANCE cAMP manual). • Cells and Assay. […]
For the assay, INS-1E cells were plated at confluence in 96-well plates (Costar 3610) and allowed to recover for 4 days in normal growth media. […] The plates were incubated at room temperature for 1 hour and then fluorescence intensity was measured at 665 nm. Cyclic AMP concentrations were determined against a standard curve.

For “GLP-1 (7-36) amide: GLP-1 (7-36) amide, GLP-1 peptide of the background section (HAEGTFTSDVSSYLEGQAAKEFIAWLVKGR-NH2; UniProt P01275 98-127, looked up)”, the time action [1] is given as “about 50 minutes”.
In the case of “GLP-1: Glucagon like peptide-1, peptide secreted from the L-cells of the intestine; given as six-week infusion (HAEGTFTSDVSSYLEGQAAKEFIAWLVKGRG-NH2; listed as Homo sapiens)”, the “fasting and 8-hour mean plasma glucose levels” value ([2]; six-week infusion) is given as “lowered” and the β-cell function [2] is given as “improvement”.
With “His-[D-Ala]-Glu-Gly-Thr-Phe-Thr-Ser-Asp-Val-Ser-Ser-Tyr-Leu-Glu-Gly-Gln-Ala-Ala-Lys-Glu-Phe-Ile-Ala-Trp-Leu-Val-Lys-Gly-Arg-Gly-(N-3-aminopropyl)-PEG3-NH—CO—CH2—NH—NH2 [Peptide 1]” the “bioactivity: ability to stimulate cAMP compared to wild-type GLP-1” value [3] was “no loss in bioactivity”.

Source: patent publication US20120189627A1, “Semi-Synthetic GLP-1 Peptide-FC Fusion Constructs, Methods and Uses” (priority 2007, published 2012)
